Converted amounts (≈) assume the structure as drawn.
What was measured:
[1] = test system: Trypanosoma brucei brucei; assay: Anti-parasitic activity against Trypanosoma brucei brucei 427 bloodstream parasites incubated for 48 hrs by alamar blue dye based assay; format: functional, organism-based; conditions: Trypanosoma brucei, 427, 48 h
Trypanosoma cruzi = assay: Anti-parasitic activity against Trypanosoma cruzi Tulahuen C2C4 trypomastigotes infected rat L6 cells incubated for 96 hrs by CPRG/nonidet substrate based […]; format: functional, organism-based; conditions: Tulahuen C2C4, L6, 96 h
serum albumin = serum albumin (Homo sapiens, UniProt P02768); assay: Binding affinity to human serum albumin by chromatographic method; format: ADME; conditions: read-out: PB (converted)
serum albumin, sequence (P02768 whole entry): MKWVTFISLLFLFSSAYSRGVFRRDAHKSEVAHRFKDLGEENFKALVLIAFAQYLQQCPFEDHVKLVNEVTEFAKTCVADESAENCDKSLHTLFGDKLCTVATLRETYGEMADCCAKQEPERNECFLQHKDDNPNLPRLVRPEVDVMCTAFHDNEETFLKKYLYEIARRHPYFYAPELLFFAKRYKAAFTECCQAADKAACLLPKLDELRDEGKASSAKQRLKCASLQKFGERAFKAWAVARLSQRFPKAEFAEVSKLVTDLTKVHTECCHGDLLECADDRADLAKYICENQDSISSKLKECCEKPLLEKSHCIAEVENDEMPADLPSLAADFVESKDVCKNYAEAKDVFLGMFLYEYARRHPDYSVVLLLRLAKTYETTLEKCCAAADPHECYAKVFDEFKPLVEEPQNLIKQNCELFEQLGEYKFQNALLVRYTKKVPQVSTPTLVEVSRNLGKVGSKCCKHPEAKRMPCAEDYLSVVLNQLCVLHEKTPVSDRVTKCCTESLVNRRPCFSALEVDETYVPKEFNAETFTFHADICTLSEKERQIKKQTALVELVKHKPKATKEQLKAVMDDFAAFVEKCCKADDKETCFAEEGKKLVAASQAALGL

[2] = Toxicity against rat L6 cells incubated for 70 hrs by alamar blue dye based assay; format: cell-based
Plasmodium falciparum = assay: Anti-parasitic activity against chloroquine and pyrimethamine resistant Plasmodium falciparum K1 erythrocytic stages infected in human erythrocytes incubated for 48 hrs by [3H]-hypoxanthine incorporation assay; format: functional, organism-based
[3] = Kinetic solubility in pH 6.5 phosphate buffer by nephelometry; format: physicochemical; conditions: read-out: Kinetic_solubility
[4] = Kinetic solubility in pH 2.0 0.01M HCl buffer by nephelometry; format: physicochemical; conditions: read-out: Kinetic_solubility
[5] = Selectivity index, ratio of cytotoxic IC50 for rat L6 cells to EC50 for anti-parasitic activity against Trypanosoma brucei rhodesiense STIB 900; format: toxicity, cell-based; conditions: read-out: Ratio IC50/EC50
Brain = assay: Drug concentration in Swiss mouse brain at normalized dose of 1 mg/kg, iv after 5 mins by LC-MS method; format: ADME, organism-based; conditions: in vivo
[6] = test system: Trypanosoma brucei rhodesiense; assay: Anti-parasitic activity against Trypanosoma brucei rhodesiense STIB 900 trypomastigotes incubated for 70 hrs by alamar blue dye based assay; format: functional, organism-based; conditions: STIB 900, 70 h
[7] = Stability assessed as degradation half life; format: physicochemical
[8] = Selectivity index, ratio of cytotoxic IC50 for HEK293 cells to EC50 for anti-parasitic activity against Trypanosoma brucei brucei 427 bloodstream parasites; format: toxicity, cell-based; conditions: human, read-out: Ratio IC50/EC50
[9] = Intrinsic clearance in human liver microsomes assessed per mg protein at pH 7.4 at 0.5 uM in presence of NADPH regenerating system by LC-MS method; format: ADME; conditions: read-out: CLH
Leishmania donovani = assay: Anti-parasitic activity against Leishmania donovani MHOM/ET/67/L82 axenic amastigotes incubated for 70 hrs by alamar blue dye based assay; format: functional, organism-based; conditions: MHOM/ET/67/L82, 70 h
[10] = Partition coefficient, logD of the compound at pH 7.4 by HPLC method; format: physicochemical; conditions: octanol/water
[11] = Ratio of drug concentration in brain to plasma of Swiss mouse at normalized dose of 1 mg/kg, iv after 5 mins by LC-MS method; format: ADME, organism-based; conditions: read-out: BPR
[12] = Volume of distribution in Swiss mouse at 1.8 mg/kg, iv by LC-MS method; format: ADME, organism-based; conditions: in vivo
Mus musculus = assay: Blood clearance in Swiss mouse at 1.8 mg/kg, iv by LC-MS method relative to hepatic blood flow; format: ADME, organism-based, Liver; conditions: in vivo
[13] = Blood clearance in Swiss mouse at 1.8 mg/kg, iv by LC-MS method; format: ADME, organism-based; conditions: whole blood
[14] = Apparent half life in Swiss mouse at 1.8 mg/kg, iv by LC-MS method; format: ADME, organism-based; conditions: in vivo, read-out: t1/2(app) (converted)
Liver microsome [15] = assay: Drug metabolism in human liver microsomes assessed as oxygenated metabolite formation after 60 mins at 10 uM presence of NADPH regenerating system and UDPGA by LC-MS method; format: ADME; conditions: 1 h
[16] = Drug stability in human liver microsomes assessed as parent compound loss after 60 mins at 10 uM absence of NADPH regenerating system and UDPGA by LC-MS method; format: ADME; conditions: read-out: Drug degradation
Liver microsome [17] = assay: Drug metabolism in human liver microsomes assessed as N-oxide metabolite formation after 60 mins at 10 uM absence of NADPH regenerating system and UDPGA by LC-MS method; format: ADME; conditions: 1 h
[18] = Drug metabolism in human liver microsomes after 60 mins at 10 uM presence of NADPH regenerating system by LC-MS method; format: ADME; conditions: read-out: Drug metabolism
Liver microsome [19] = assay: Drug metabolism in human liver microsomes assessed as oxygenated metabolite formation after 60 mins at 10 uM presence of NADPH regenerating system by LC-MS method; format: ADME; conditions: 1 h
Liver microsome [20] = assay: Drug level in human liver microsomes treated with 10 uM 3-Amino-N-cyclopentyl-6-(m-tolyl)pyrazine-2-carboxamide assessed as compound formation after 60 mins presence of NADPH regenerating system and UDPGA by LC-MS method; format: ADME; conditions: 1 h
Liver microsome [21] = assay: Drug level in human liver microsomes treated with 10 uM 3-Amino-N-cyclopentyl-6-(m-tolyl)pyrazine-2-carboxamide assessed as compound formation after 60 mins presence of NADPH regenerating system by LC-MS method; format: ADME; conditions: 1 h
Liver microsome [22] = assay: Drug level in human liver microsomes treated with 10 uM 3-Amino-N-cyclopentyl-6-(m-tolyl)pyrazine-2-carboxamide assessed as compound formation after 60 mins absence of NADPH regenerating system and UDPGA by LC-MS method; format: ADME; conditions: 1 h
[23] = Toxicity in late-stage human african trypanosomiasis patient assessed as mortality rate following 10-day schedule; format: organism-based; conditions: in vivo

| SMILES | EC50 [1] | EC50 (Trypanosoma cruzi) | fraction unbound (serum albumin) | IC50 at 70 h [2] | EC50 (Plasmodium falciparum) | solubility kinetic [3] | solubility kinetic [4] | selectivity ratio [5] | EC50 [6] | half-life [7] | selectivity ratio [8] | microsomal CLint at 0.5 µM [9] | EC50 (Leishmania donovani) | logD [10] | other results |
| --- | --- | --- | --- | --- | --- | --- | --- | --- | --- | --- | --- | --- | --- | --- | --- |
| Nc1ncc(-c2ccccc2)nc1C(=O)NC1CCCC1 | 0.26 µM | 13 µM | 0.042 | 20 µM | 6.1 µM | 25 µg/mL (≈ 88.5 µM) | 6.3 µg/mL (≈ 22.3 µM) | 140 | 0.14 µM | 9 min | > 368 | 198 µL/min/mg | > 10 µM | 4.1 | Drug uptake (Brain): 1192.3 ng/g; Kp at 5 min [11]: 5.7 |
| CCC(C)NC(=O)c1nc(-c2cccc(Cl)c2)cnc1N (centres undefined) | 0.48 µM | 25 µM | 0.028 | 39 µM | 1.1 µM | 1.6 µg/mL (≈ 5.25 µM) | 1.6 µg/mL (≈ 5.25 µM) | 20 | 2.02 µM | 12 min | 175 | 147 µL/min/mg | > 10 µM | 4.4 | – |
| CCC(C)NC(=O)c1nc(-c2ccc(F)cc2)cnc1N (centres undefined) | 0.4 µM | 17 µM | 0.058 | 17 µM | 9 µM | 50 µg/mL (≈ 173 µM) | 6.3 µg/mL (≈ 21.9 µM) | 61 | 0.22 µM | 15 min | > 206 | 119 µL/min/mg | > 10 µM | 4 | Drug uptake (Brain): 1069.5 ng/g; Kp at 5 min [11]: 5.1 |
| CCC(CC)NC(=O)c1nc(-c2cccc(C)c2)cnc1N | 0.11 µM | 20 µM | 0.036 | 20 µM | 4.1 µM | 1.6 µg/mL (≈ 5.36 µM) | 1.6 µg/mL (≈ 5.36 µM) | 150 | 0.14 µM | 9 min | 774 | 194 µL/min/mg | > 10 µM | 4.7 | – |
| CCC(CC)NC(=O)c1nc(-c2ccc(F)cc2)cnc1N | 0.08 µM | 15 µM | 0.036 | 28 µM | 7.6 µM | 3.1 µg/mL (≈ 10.3 µM) | 3.1 µg/mL (≈ 10.3 µM) | 540 | 0.053 µM | 21 min | 1024 | 84 µL/min/mg | > 10 µM | 4.4 | Vd [12]: 14.7 L/kg; CL (Mus musculus): 60%; clearance [13]: 69 mL/min/kg; half-life [14]: 546 min |
| CCC(CC)NC(=O)c1nc(-c2ccc(F)c(C)c2)cnc1N | 0.025 µM | 13 µM | 0.022 | 24 µM | 1.8 µM | < 1.6 µg/mL | < 1.6 µg/mL | 630 | 0.038 µM | 8 min | 423 | 212 µL/min/mg | > 10 µM | 4.8 | – |
| CCC(CC)NC(=O)c1nc(-c2ccc(F)cc2C#N)cnc1N | 0.1 µM | 19 µM | 0.029 | 20 µM | 2.9 µM | 1.6 µg/mL (≈ 4.89 µM) | < 1.6 µg/mL | 230 | 0.089 µM | 26 min | 850 | 66 µL/min/mg | > 10 µM | 4.2 | – |
| N#Cc1ccccc1-c1cnc(N)c(C(=O)NC2CCCC2)n1 | 0.2 µM | 5.2 µM | 0.038 | 11 µM | 2.5 µM | < 1.6 µg/mL | 3.1 µg/mL (≈ 10.1 µM) | 19 | 0.57 µM | 10 min | 416 | 165 µL/min/mg | > 10 µM | 3.9 | – |
| Cc1cccc(-c2cnc(N)c(C(=O)NC3CCCC3)n2)c1 | 0.035 µM | 17 µM | 0.023 | 42 µM | 4.9 µM | 3.1 µg/mL (≈ 10.5 µM) | 3.1 µg/mL (≈ 10.5 µM) | 1790 | 0.024 µM | 7 min | 2380 | 266 µL/min/mg | > 10 µM | 4.6 | Drug metabolism (Liver microsome [15]): metabolite_detected; metabolised at 1 h, 10 µM [16]: 6%; Drug metabolism (Liver microsome [17]): metabolite_detected; metabolised at 1 h, 10 µM [18]: 92%; Drug metabolism (Liver microsome [19]): metabolite_detected |
| Nc1ncc(-c2cccc(CO)c2)nc1C(=O)NC1CCCC1 | – | – | – | – | – | – | – | – | – | – | – | – | – | – | Drug metabolism (Liver microsome [20]): metabolite_detected; Drug metabolism (Liver microsome [21]): metabolite_detected |
| Cc1cccc(-c2c[n+]([O-])c(N)c(C(=O)NC3CCCC3)n2)c1 | – | – | – | – | – | – | – | – | – | – | – | – | – | – | Drug metabolism (Liver microsome [22]): metabolite_detected; Drug metabolism (Liver microsome [20]): metabolite_detected; Drug metabolism (Liver microsome [21]): metabolite_detected |
| Nc1ncc(-c2cccc(C(=O)O)c2)nc1C(=O)NC1CCCC1 | – | – | – | – | – | – | – | – | – | – | – | – | – | – | Drug metabolism (Liver microsome [20]): metabolite_detected; Drug metabolism (Liver microsome [21]): metabolite_detected |
| Cc1cccc(-c2cnc(N)c(C(=O)NC3=CCCC3)n2)c1 | – | – | – | – | – | – | – | – | – | – | – | – | – | – | Drug metabolism (Liver microsome [20]): metabolite_detected; Drug metabolism (Liver microsome [21]): metabolite_detected |
| Nc1nc(N)nc(Nc2ccc([As]3SCC(CO)S3)cc2)n1 (centres undefined) [MELARSOPROL] | – | – | – | – | – | – | – | – | – | – | – | – | – | – | mortality at 10 day [23]: 5.9% |
